Measured values: article PMC6200594 (ACS infectious diseases, 2018)
Like-named read-outs stand apart in the source and are kept apart here.

Legend:
[1] = system: bacterial cell membrane disruption / depolarization; test: Membrane depolarization assay; assay type: cell-based; details: DiSC3 release
[2] = system: bacterial cell membrane permeability; details: PI; cited from earlier work
[3] = system: bacterial cell membrane disruption / depolarization; details: DiSC3; cited from earlier work
Ac2K-D-Ala-D-Lac = details: remodeled peptidoglycan precursor; cited from earlier work

Substance	membrane depolarization activity (in words) [1]	induced cell membrane permeability (in words) [2]	membrane depolarization activity (in words) [3]	decrease in binding affinity on replacing ᴅ-Ala-ᴅ-Ala with ᴅ-Ala-ᴅ-Lac (Ac2K-D-Ala-D-Lac)
CBP-vancomycin [compound 3]	also observed			
oritavancin		activity in both assays has been observed	observed	
telavancin		activity in both assays has been observed	observed	
vancomycin [compound 1]				1,000 fold
